In patent US20230364032A1, “USE OF 2-HOBA TO TREAT ATHEROSCLEROSIS” (Vanderbilt University, priority 2020, published 2023):
“And” between values parts separate entries of the source, which are not always exact repeats. Identical values can stand only once. “Also recorded” adds a separate entry of the source.

Tests used:
[1] = system: hypercholesterolemic Ldlr−/− mice; assay: Atherosclerosis in western-diet-fed Ldlr−/− mice (Oil-Red-O proximal aorta sections and en face aorta); assay type: in vivo, mouse; conditions: western diet 16 weeks; for effect on atherosclerosis: hypercholesterolemic Ldlr−/− mice
Procedure: Ldlr^−/− and WT on C57BL/6 background mice were obtained from the Jackson Laboratory. Animal protocols were performed according to the regulations of Vanderbilt University's Institutional Animal Care and Usage Committee. Mice were maintained on chow or a Western-type diet containing 21% milk fat and 0.15% cholesterol (Teklad). Eight week old, female Ldlr^−/− mice on a chow diet were pretreated with vehicle alone (Water) or containing either 1 g/L of 4-HOBA or 1 g/L of 2-HOBA. 4-HOBA (as hydrochloride salt) was synthesized as previously described^21. 2-HOBA (as the acetate salt, CAS 1206675-01-5) was manufactured by TSI Co., Ltd. (Missoula, MT) and obtained from Metabolic Technologies, Inc., Ames, IA^24. A commercial production lot was used (Lot 16120312), and the purity of the commercial lot was verified to be >99% via HPLC and NMR spectroscopy^24. After two weeks, the mice continued to receive these treatments but were switched to a western diet for 16 weeks to induce hypercholesterolemia and atherosclerosis. Similarly, 12 week-old male Ldlr^−/− mice were pretreated with vehicle alone (water) or containing 1 g/L of 2-HOBA for two weeks and were then switched to a western diet for 16 weeks to induce hypercholesterolemia and atherosclerosis, while continuing the treatment with 2-HOBA or water alone^58, 59, 60 Based on the average weight and daily consumption of water per mouse the estimated daily dosage with 1 g/L of 2-HOBA is 200 mg/Kg. […] Eight week old, male Ldlr^−/− mice were fed a western diet for 16 weeks and were continuously treated with water containing either 2-HOBA or 4-HOBA. Urine samples were collected using metabolic cages (2 mice in one cage) during 18 h after oral gavage with either 2-HOBA or 4-HOBA (5 mg each mouse).
The extent of atherosclerosis was examined both Oil-Red-O-stained cross-sections of the proximal aorta and by en face analysis^30. Briefly, cryosections of 10-micron thickness were cut from the region of the proximal aorta starting from the end of the aortic sinus and for 300 μm distally, according to the method of Paigen et al.^62. The Oil red-O staining of 15 serial sections from the root to ascending aortic region were used to quantify the Oil red-O-positive staining area per mouse. The mean from the 15 serial sections was applied for the aortic root atherosclerotic lesion size per mouse using the KS300 imaging system (Kontron Elektronik GmbH) as described^63, 64, 65. All other stains were done using sections that were 40 to 60 μm distal of the aortic sinus. For each mouse, 4 sections were stained and quantitation was done on the entire cross section of all 4 sections. For immunofluorescence staining, 5 μm cross-sections of the proximal aorta were fixed in cold acetone (Sigma), blocked in Background Buster (Innovex), incubated with indicated primary antibodies (MDA and CD68) at 4° C. for overnight. After incubation with fluorescent labeled secondary antibodies at 37 C for 1 hour, the nucleus was counterstained with Hoechst. Images were captured with a fluorescence microscope (Olympus IX81) and SlideBook 6 (Intelligent-Image) software and quantitated using ImageJ software (NIH)^66.

MDA-apoAI = assay: Plasma MDA-apoAI by immunoprecipitation and western blotting; assay type: in vivo, mouse
Procedure: FIGS. 7A-7G show the effects of 2-HOBA on MDA-HDL adducts and HDL function. (7A) The levels or MDA adducts were measured by ELISA in HDL isolated from Ldlr mice treated as described in FIG. 1. Data are presented as mean±SEM (N=8 pet group), *** p<0.001, One-way ANOVA with Bonferroni's post hoc test. (7B) Western blots of apoAl and MDA-apoAl in HDL isolated from plasma by immunoprecipitation using primary anti-apoAl antibody. Ldlf mice were treated as described In FIG. 1 and apoAl and MDA-apoAl from Ldlr mice consuming a chow diet are included f0t comparison. (7C) Quantitation using lmageJ software of the mean density ratio (arbitrary units) of MDA-apoAl to apoAl detected by Western blotting (7B). […]
The study was approved by the Vanderbilt University Institutional Review Board (IRB), and all participants gave their written informed consent. […] After stopping the reaction, the O.D. was measured at 450 nm wavelength. MDA-ApoAI was detected in mouse plasma by immunoprecipitation of ApoAI and western blotting. […] Proteins were visualized and quantitated by Odyssey 3.0 Quantification software (LI-COR).

[2] = male Ldlr−/− mice, 1 g/L, compared to water

Row | Structure (SMILES) | reduction of extent of proximal aortic atherosclerosis ([1]; female Ldlr−/− mice, 1 g/L in water, compared to 4-HOBA) | reduction of extent of proximal aortic atherosclerosis ([1]; female Ldlr−/− mice, 1 g/L in water, compared to vehicle) | reduction of extent of aortic atherosclerosis, en face analysis ([1]; female Ldlr−/− mice, 1 g/L, compared to 4-HOBA) | reduction of extent of aortic atherosclerosis, en face analysis ([1]; female Ldlr−/− mice, 1 g/L, compared to vehicle) | effect on atherosclerosis ([1]; 1 g/L) | reduction of extent of proximal aortic atherosclerosis [1, 2] | reduction of extent of whole aorta atherosclerosis [1, 2] | plasma MDA-apoAI adducts (MDA-apoAI; Ldlr−/− mice consuming a western diet) | plasma levels of MDA-apoAI compared to Ldlr−/− mice consuming a chow diet (MDA-apoAI; after 16 weeks on the western-type diet)
1 | NCc1ccccc1O [2-HOBA, 2-hydroxybenzylamine] | 31.5% | 31% and 31.1% | 59.1% | 60% and 60.3% | attenuates atherosclerosis; also recorded: reduces atherosclerotic lesions | 37% | 45% | inhibited; also recorded: dramatically reduced | 
2 | NCc1ccc(O)cc1 [4-HOBA, 4-hydroxybenzylamine, reference compound] |  |  |  |  | not atheroprotective |  |  |  | markedly increased
